Test results: paper PMC2861366 (Biochemistry, 2010)
Entries after “also recorded” stand apart in the source; their conditions may differ.

What was measured:
[1] = tested on: PriA helicase; assay: ITC binding to PriA helicase; set-up: species or system E. coli; conditions: 25°C; for binding detected by ITC (in words): 0.2 M NaCl, same protein and peptide concentrations as with WP9
[2] = tested on: χ subunit of DNA polymerase III holoenzyme; assay: ITC binding to χ subunit; set-up: species or system E. coli; conditions: 25°C; for K, observed association equilibrium constant: buffer C (10 mM cacodylate, pH 7.0, 25% glycerol), 20 mM NaCl
[3] = tested on: χ subunit of DNA polymerase III holoenzyme; conditions: SSB prebound to ssDNA, low salt (5mM NaCl); cited from earlier work
[4] = buffer C, pH 7.0, 200 mM NaCl, WP9: averaged from two titrations
[5] = buffer T (10 mM Tris, pH 7.5, 10% glycerol), 20 mM NaCl
[6] = buffer C (10 mM cacodylate, pH 7.0, 25% glycerol), 20 mM NaCl

| Substance | K, observed association equilibrium constant [1, 4] | K, observed association equilibrium constant [1, 5] | K, observed association equilibrium constant [2] | K, observed association equilibrium constant [1, 6] | binding detected by ITC (in words) ([1]; buffer C) | binding detected by ITC (in words) ([2]; 0.2 M NaCl, buffer C) | other results |
| --- | --- | --- | --- | --- | --- | --- | --- |
| MDFDDDIPF [P9] | (1.8±0.6)×10^5 M^−1 | (2.0±0.3)×10^6 M^−1 | (1.6±0.4)×10^6 M^−1 | – | – | – | – |
| PSNEPPMDFDDDIPF [P15] | (3.6±0.2)×10^5 M^−1 | (1.6±0.4)×10^6 M^−1 | (1.5±0.2)×10^6 M^−1 | (2.7±0.2)×10^6 M^−1 | – | – | – |
| SSB: E. coli single stranded DNA binding protein, homotetramer | – | – | – | – | – | – | affinity of χ for SSB in the presence of ssDNA [3]: (7.4±1.0)×10^6 M^−1; binding detected by ITC (in words) ([2]; 0.02 M NaCl): too weak to determine its binding parameters; also recorded: Weak (see text) |
| WDFMDDPFID [WP9r] | – | – | – | – | No binding can be detected | No binding can be detected | – |
| WMDFDDDISF [WP9-113] | – | – | – | – | No binding can be detected | No binding can be detected | – |
| WP9: modified P9 peptide containing a Trp residue on the N terminal side (WMDFDDDIPF) | (2.3±0.3)×10^5 M^−1 | – | (1.2±0.1)×10^6 M^−1 | (1.6±0.2)×10^6 M^−1 | – | – | – |
